# Literature values, collected in patent US6352974B1, “Oral calcitonin pharmaceutical compositions and methods of making the same” (Eurand International S.p.A., priority 1996, dated 2002).
# Conditions: typical activity
substance,measurement,value
Salmon calcitonin,activity,up to 6500 IU/mg
